# Experimental data as given in PubChem BioAssay AID2060600 (Molecular Pharmacology Branch, DTP, NCI, 2025).
# Tested on: 996289-038-R-J1-PDC complex spheroid viability
# Assay: Anticancer human tumor 996289-038-R-J1-PDC patient-derived colon adenocarcinoma cell line growth inhibition [CLK]
# Conditions: for IC50: curve of first compound; for viability, T/C: stronger effect = lower value
# Excerpt: A high-throughput screen of multi-cell type tumor spheroids was designed to identify active combinations of […] and targeted small molecules. Complex spheroids include a stromal component modeled by human endothelial cells (HUVEC) and fibroblasts modeled by human mesenchymal stem cells (MSCs). The concentration ranges selected for each drug and investigational agent were based upon clinically achievable concentrations if the clinical Cmax of the agent was known.
# Compounds. The drugs and investigational agents: cirtuvivint (SM08502; NSC835563), CC-671 (NSC850746), vemurafenib (NSC761431), tapotoclax (NSC804041), sotorasib (NSC818433), adagrasib (NSC831453), MRTX-1133 (NSC836407), BAY2416964 (NSC825713), copanlisib (NSC816437), inavolisib (NSC800729), abemaciclib (NSC768073), osimertinib (NSC779217), entinostat (NSC756642), eltanexor (KPT-8602, NSC794443), venetoclax (NSC766270), ceralasertib (NSC777638), bortezomib (NSC756655), olaparib (NSC753686), talazoparib (NSC767125), alisertib (NSC759677), peposertib (NSC802822), gemcitabine (NSC613327), 5-fluorouracil (NSC19893), SN-38 (NSC673596), oxaliplatin (NSC266046), paclitaxel (NSC125973), and doxorubicin (NSC123127), were obtained from the National Cancer Institute (NCI) Developmental Therapeutics Program Chemical Repository. The FDA-approved anticancer drug set is available from the Developmental Therapeutics Program at https://dtp.cancer.gov/organization/dscb/obtaining/available plates.htm. […] The stock solutions were prepared in dimethyl sulfoxide (DMSO, Sigma-Aldrich, St. Louis, MO, cat. D2650), except for the platinum complexes which were prepared in saline (Quality Biological, Gaithersburg, MD, cat. 114-055-101), at 800-fold the tested concentration and stored at -70 degrees C prior to their use. All drugs and investigational agents were tested over a range starting from a high concentration at or near the clinical Cmax and decreasing in half-log increments. If the clinical Cmax for an agent had not been determined, the highest concentration tested was 10 microM.
# Cell Culture. All cells were maintained in an incubator at 37 degrees C and 5% CO2 with 95% humidity. The PDC lines were cultured according to standard operating procedures established by the NCI PDMR. Briefly, all PDCs were thawed and cultured in Matrigel-coated flasks prepared with a working solution of 1X Ham's F-12 nutrient mix, without supplementation (Invitrogen, Waltham, MA, cat. 11765054), 100 U/mL penicillin-streptomycin (Invitrogen, cat. 15140122), and 2.5% Matrigel (Corning Inc., Corning, NY, cat. 354248) for the first three passages. The 947758-054-R-J2-PDC line was cultured in 6B/Colon 1A media, which includes advanced DMEM/F-12 (Thermo Fisher Scientific, cat. 12634028), 10 mM HEPES (Thermo Fisher Scientific, cat. 15630080), 1X GlutaMAX supplement (Thermo Fisher Scientific, cat. 35050061), 0.1 mg/mL primocin (InvivoGen, cat. ant-pm-2), 10% defined fetal bovine serum, heat inactivated (HyClone Laboratories Inc., cat. SH30070.03HI), 1.25 mM N-Acetyl-L-cysteine (Sigma-Aldrich, cat. A9165), 10 mM nicotinamide (Sigma-Aldrich, cat. N0636), 1X B-27 supplement (Thermo Fisher Scientific, cat. 17504044), 1X N-2 supplement (Thermo Fisher Scientific, cat. 17502048), and 10 microM Y-27632 dihydrochloride (Tocris Bioscience, cat. 1254). The 876862-298-R-J1-PDC was cultured in 6E media, which includes all 6B/Colon 1A media components plus 50% L-WRN conditioned media (ATCC, cat. CRL-3276), 50 ng/mL recombinant human EGF recombinant protein (hEGF; Thermo Fisher Scientific, cat. PHG0311), 10 ng/mL recombinant human fibroblast growth factor 10 (hGFG-10; PeproTech, cat. 100-26), 1 ng/mL recombinant human fibroblast growth factor 2 (hFGF-2; PeproTech, cat. 100-18B), and 1 µM prostaglandin E2 (PGE2; Tocris, cat. 2296). The 227483-062-R1-J1-PDC line was cultured in Panc media, containing all 6E components except hFGF-2, with the addition of 500 nM SB-431542 (Selleckchem, cat. S1067) and 10 nM gastrin (Tocris, cat. 3006). […]
# 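Note: spheroids exposed to the agents for 7 days before readout.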
smiles,measurement,setting,value
COc1c(OCCCN2CCOCC2)ccc2c3n(c(=NC(=O)c4cnc(N)nc4)nc12)CCN3 + CN1CCN(c2cc(C(=O)Nc3cc4cc(-c5cnn(C)c5)ccc4cn3)ccn2)CC1,IC50,second compound 0.0316 µM,74.6 nM
same,IC50,second compound 0.1 µM,37.7 nM
same,IC50,second compound 0.316 µM,9.79 nM
same,IC50,second compound 1 µM,< 3.16 nM
same,IC50,second compound 3.16 µM,< 3.16 nM
same,IC50,second compound 10 µM,< 3.16 nM
same,"viability, T/C","second compound 0.0316 µM, first compound 0.00316 µM",87.7%
same,"viability, T/C","second compound 0.0316 µM, first compound 0.01 µM",88.8%
same,"viability, T/C","second compound 0.0316 µM, first compound 0.0316 µM",64.5%
same,"viability, T/C","second compound 0.0316 µM, first compound 0.1 µM",43.9%
same,"viability, T/C","second compound 0.0316 µM, first compound 0.316 µM",30.1%
same,"viability, T/C","second compound 0.0316 µM, first compound 1 µM",18.7%
same,"viability, T/C","second compound 0.1 µM, first compound 0.00316 µM",86%
same,"viability, T/C","second compound 0.1 µM, first compound 0.01 µM",66.7%
same,"viability, T/C","second compound 0.1 µM, first compound 0.0316 µM",56.4%
same,"viability, T/C","second compound 0.1 µM, first compound 0.1 µM",33.5%
same,"viability, T/C","second compound 0.1 µM, first compound 0.316 µM",24.8%
same,"viability, T/C","second compound 0.1 µM, first compound 1 µM",13.5%
same,"viability, T/C","second compound 0.316 µM, first compound 0.00316 µM",56.9%
same,"viability, T/C","second compound 0.316 µM, first compound 0.01 µM",50%
same,"viability, T/C","second compound 0.316 µM, first compound 0.0316 µM",36.3%
same,"viability, T/C","second compound 0.316 µM, first compound 0.1 µM",21%
same,"viability, T/C","second compound 0.316 µM, first compound 0.316 µM",12.7%
same,"viability, T/C","second compound 0.316 µM, first compound 1 µM",8.17%
same,"viability, T/C","second compound 1 µM, first compound 0.00316 µM",2.97%
same,"viability, T/C","second compound 1 µM, first compound 0.01 µM",3.06%
same,"viability, T/C","second compound 1 µM, first compound 0.0316 µM",3.03%
same,"viability, T/C","second compound 1 µM, first compound 0.1 µM",1.3%
same,"viability, T/C","second compound 1 µM, first compound 0.316 µM",1.59%
same,"viability, T/C","second compound 1 µM, first compound 1 µM",3.21%
same,"viability, T/C","second compound 3.16 µM, first compound 0.00316 µM",0.97%
same,"viability, T/C","second compound 3.16 µM, first compound 0.01 µM",0.95%
same,"viability, T/C","second compound 3.16 µM, first compound 0.0316 µM",2.68%
same,"viability, T/C","second compound 3.16 µM, first compound 0.1 µM",0.71%
same,"viability, T/C","second compound 3.16 µM, first compound 0.316 µM",2.1%
same,"viability, T/C","second compound 3.16 µM, first compound 1 µM",1.27%
same,"viability, T/C","second compound 10 µM, first compound 0.00316 µM",1.28%
same,"viability, T/C","second compound 10 µM, first compound 0.01 µM",0.97%
same,"viability, T/C","second compound 10 µM, first compound 0.0316 µM",0.74%
same,"viability, T/C","second compound 10 µM, first compound 0.1 µM",0.86%
same,"viability, T/C","second compound 10 µM, first compound 0.316 µM",0.56%
same,"viability, T/C","second compound 10 µM, first compound 1 µM",0.61%
